The nature of experiment [1]: Inhibition of Rickettsia prowazekii methionine aminopeptidase 1 using methionine-aminomethylcoumarin as substrate at 10 uM preincubated for 1 hrs followed by substrate addition and measured after 30 mins by fluorescence based plate reader analysis relative to control. As to conditions: time 1.5 hrs.
Experiment [2] can be described thus: Inhibition of Rickettsia prowazekii methionine aminopeptidase 1 using methionine-aminomethylcoumarin as substrate preincubated for 1 hrs followed by substrate addition and measured after 30 mins by fluorescence based plate reader analysis.

For orientation: inhibition means how much of the control response was suppressed. Read a low inhibition as a weak effect. For orientation: IC50 means the concentration at which inhibition is half-maximal. Higher therefore signals weaker potency in that assay. `Cc1cc(-c2ccccc2)c(C(=O)C(=O)Nc2ccc(N3CCN(c4ncc(F)cn4)CC3)cc2)n1C` [OLOROFIM] yielded an inhibition in experiment [1] of over 60%. The IC50 in experiment [2] worked out at 4.2 µM.

`CCCCCCC1c2ccc(O)cc2Oc2cc(O)ccc21` registered an inhibition in experiment [1] of over 60%. In experiment [2], this compound showed an IC50 of 10 µM.

As for `Fc1ccc(-n2cc(Cn3c(-c4cccc(F)c4)nc4ccccc43)nn2)cc1`, the inhibition in experiment [1] is over 60%. This compound also came in with an IC50 in experiment [2] of 4.1 µM.

In turn, `O=C1c2cccc3cccc(c23)C(=O)N1CC1CO1` (centres undefined) gave an inhibition in experiment [1] of over 60%. Further, it took 4.8 µM to reach half-maximal inhibition in experiment [2] (IC50).

As for `Cc1ccc(Oc2ccccc2-c2csc(N=C3NCCCN3)n2)c(C)c1` [ABAFUNGIN], the inhibition in experiment [1] is over 60%. Further, the IC50 in experiment [2] is 5.4 µM.

The compound `O=C(NCc1ccc(F)cc1)c1c(O)c2ncccc2[nH]c1=O` came in with an inhibition in experiment [1] of over 60%. The compound further had an IC50 in experiment [2] of 1.9 µM.

The compound `Oc1cccc(C(Nc2nccs2)c2ccc3cccnc3c2O)c1` (centres undefined) gave an inhibition in experiment [1] of over 60%. The compound further showed an IC50 in experiment [2] of 1.4 µM.

Compound `COc1cc(Cc2cnc(N)nc2N)cc(OC)c1OC` [TRIMETHOPRIM] registered an inhibition in experiment [1] of over 60%. Also, the IC50 in experiment [2] was 5.1 µM.

Regarding `O=C(Nc1nnc(-c2ccc(Cl)cc2)o1)c1nc2ccccc2s1`, the inhibition in experiment [1] was over 60%. Inhibition in experiment [2] was half-maximal at 5.5 µM (IC50).

`Nc1nc(=O)[nH]cc1F` [FLUCYTOSINE] had an inhibition in experiment [1] of over 60%. The same compound returned an IC50 in experiment [2] of 6.9 µM.

As to `O=C(O)c1ccc(-c2ccccc2Cl)o1`, in experiment [2], the IC50 stood at 2.4 µM.

Take `COc1ccc(C)cc1NC(=O)c1ccc(S(=O)(=O)N2CCCCC2)cc1`: in experiment [1], the inhibition was over 60%. The compound also registered an IC50 in experiment [2] of 2.4 µM.

In experiment [1], `CONC(=N)c1ccc(-c2ccc(-c3ccc(C(=N)NOC)cc3)o2)cc1` [PAFURAMIDINE] gave an inhibition of over 60%. Further, in experiment [2], half-maximal inhibition (IC50) was put at 2.9 µM.

In experiment [1], `CN(C)CCCNC(=O)c1ccc(-c2cc(O)c3ncccc3c2)cc1` displayed an inhibition of over 60%. In experiment [2], this compound displayed a half-maximal inhibitory concentration (IC50) of 0.34 µM.

In experiment [1], `O=[N+]([O-])/C(Br)=C/c1ccc(Br)o1` yielded an inhibition of over 60%. In experiment [2], this compound yielded an IC50 of 2.9 µM.

As to `CN(O)C(=O)c1cc2c(CN3CCC[C@H]3C(N)=O)cn(Cc3ccc(F)cc3)c2cn1`, the inhibition in experiment [1] is over 60%. In addition, in experiment [2], the midpoint of inhibition, the IC50, lay at 4.2 µM.

`C[C@@H](c1nc(-c2ccc(C#N)cc2)cs1)[C@](O)(Cn1cncn1)c1ccc(F)cc1F` [RAVUCONAZOLE]: in experiment [1], the inhibition was over 60%. The compound also returned an IC50 in experiment [2] of 5.2 µM.

Compound `O=c1cc(Nc2ccc3ccccc3c2)[nH]c(=O)[nH]1` came in with an inhibition in experiment [1] of over 60%. Besides, the IC50 in experiment [2] came to 1.8 µM.

`O=C(O)c1ccc(-n2nc(-c3ccccc3O)nc2-c2ccccc2O)cc1` [DEFERASIROX]: the inhibition in experiment [1] is over 60%. Half-maximal inhibition in experiment [2] (IC50) required 2.1 µM.

On to `O=C(CP(=O)(O)O)NCCc1cccc(Oc2ccccc2)c1`, for which, in experiment [1], the inhibition is over 60%. Besides, in experiment [2], the IC50 was determined as 7 µM.
